Test results: PubChem BioAssay AID2060896 (Molecular Pharmacology Branch, DTP, NCI, 2025)
Each block holds one molecule with its values, some of them ahead of it.

Tested on: 941728-121-R-J1-PDC complex spheroid viability
Assay: Anticancer human tumor 941728-121-R-J1-PDC patient-derived lung adenocarcinoma cell line growth inhibition [RAS]
Conditions: for IC50: curve of first compound; for viability, T/C: stronger effect = lower value
In short: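 Tumour cells grown as complex spheroids with HUVEC endothelial cells and mesenchymal stem cells, treated with RAS pathway inhibitor combinations. Each agent spans half-log steps from near clinical Cmax, or 10 microM where Cmax is unknown.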

[1] = second compound 0.000949 µM, first compound 0.0316 µM
[2] = second compound 0.000949 µM, first compound 0.1 µM
[3] = second compound 0.000949 µM, first compound 0.316 µM
[4] = second compound 0.000949 µM, first compound 1 µM
[5] = second compound 0.000949 µM, first compound 3.16 µM
[6] = second compound 0.000949 µM, first compound 10 µM
[7] = second compound 0.003 µM, first compound 0.0316 µM
[8] = second compound 0.003 µM, first compound 0.1 µM
[9] = second compound 0.003 µM, first compound 0.316 µM
[10] = second compound 0.003 µM, first compound 1 µM
[11] = second compound 0.003 µM, first compound 3.16 µM
[12] = second compound 0.003 µM, first compound 10 µM
[13] = second compound 0.00949 µM, first compound 0.0316 µM
[14] = second compound 0.00949 µM, first compound 0.1 µM
[15] = second compound 0.00949 µM, first compound 0.316 µM
[16] = second compound 0.00949 µM, first compound 1 µM
[17] = second compound 0.00949 µM, first compound 3.16 µM
[18] = second compound 0.00949 µM, first compound 10 µM
[19] = second compound 0.03 µM, first compound 0.0316 µM
[20] = second compound 0.03 µM, first compound 0.1 µM
[21] = second compound 0.03 µM, first compound 0.316 µM
[22] = second compound 0.03 µM, first compound 1 µM
[23] = second compound 0.03 µM, first compound 3.16 µM
[24] = second compound 0.03 µM, first compound 10 µM
[25] = second compound 0.0949 µM, first compound 0.0316 µM
[26] = second compound 0.0949 µM, first compound 0.1 µM
[27] = second compound 0.0949 µM, first compound 0.316 µM
[28] = second compound 0.0949 µM, first compound 1 µM
[29] = second compound 0.0949 µM, first compound 3.16 µM
[30] = second compound 0.0949 µM, first compound 10 µM
[31] = second compound 0.3 µM, first compound 0.0316 µM
[32] = second compound 0.3 µM, first compound 0.1 µM
[33] = second compound 0.3 µM, first compound 0.316 µM
[34] = second compound 0.3 µM, first compound 1 µM
[35] = second compound 0.3 µM, first compound 3.16 µM
[36] = second compound 0.3 µM, first compound 10 µM
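Also: spheroids exposed to compounds for 7 days before readout.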
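For viability, T/C in this document: 100% = DMSO vehicle control viability.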

IC50 (second compound 0.000949 µM): < 31.6 nM | IC50 (second compound 0.003 µM): < 31.6 nM | IC50 (second compound 0.00949 µM): < 31.6 nM | IC50 (second compound 0.03 µM): < 31.6 nM | IC50 (second compound 0.0949 µM): < 31.6 nM | IC50 (second compound 0.3 µM): < 31.6 nM
SMILES: CC(C)NCC(C(=O)N1CCN(c2ncnc3c2C(C)CC3O)CC1)c1ccc(Cl)cc1 (centres undefined) + CCn1c(-c2cccnc2C(C)OC)c2c3cc(ccc31)N1CCOC(CC(NC(=O)C(C(C)C)N(C)C(=O)C3(F)CCN(C(=O)C#CC(C)(C)N(C)C)CC3)C(=O)N3CCCC(N3)C(=O)OCC(C)(C)C2)C1
viability, T/C [1]: 25.4% | viability, T/C [2]: 23% | viability, T/C [3]: 17.7% | viability, T/C [4]: 18.8% | viability, T/C [5]: 14.5% | viability, T/C [6]: 7.61% | viability, T/C [7]: 23.5% | viability, T/C [8]: 21.9% | viability, T/C [9]: 18.5% | viability, T/C [10]: 18.1% | viability, T/C [11]: 14.7% | viability, T/C [12]: 9.24% | viability, T/C [13]: 23.1% | viability, T/C [14]: 15.8% | viability, T/C [15]: 22.4% | viability, T/C [16]: 17.5% | viability, T/C [17]: 13.2% | viability, T/C [18]: 9.76% | viability, T/C [19]: 22.8% | viability, T/C [20]: 22.1% | viability, T/C [21]: 19.3% | viability, T/C [22]: 17.7% | viability, T/C [23]: 12.9% | viability, T/C [24]: 10.9% | viability, T/C [25]: 21.1% | viability, T/C [26]: 21.2% | viability, T/C [27]: 20.7% | viability, T/C [28]: 17.8% | viability, T/C [29]: 11.9% | viability, T/C [30]: 10.9% | viability, T/C [31]: 24.7% | viability, T/C [32]: 22.9% | viability, T/C [33]: 18.9% | viability, T/C [34]: 17.1% | viability, T/C [35]: 13% | viability, T/C [36]: 11.2%

IC50 (second compound 0.000949 µM): < 31.6 nM | IC50 (second compound 0.003 µM): < 31.6 nM | IC50 (second compound 0.00949 µM): < 31.6 nM | IC50 (second compound 0.03 µM): < 31.6 nM | IC50 (second compound 0.0949 µM): < 31.6 nM | IC50 (second compound 0.3 µM): < 31.6 nM
SMILES: CC(Nc1ccc2c(c1)OCCn1cc(N3C(=O)OCC3C(F)F)nc1-2)C(N)=O (centres undefined) + CCn1c(-c2cccnc2C(C)OC)c2c3cc(ccc31)N1CCOC(CC(NC(=O)C(C(C)C)N(C)C(=O)C3(F)CCN(C(=O)C#CC(C)(C)N(C)C)CC3)C(=O)N3CCCC(N3)C(=O)OCC(C)(C)C2)C1
viability, T/C [1]: 18.5% | viability, T/C [2]: 20.6% | viability, T/C [3]: 12.5% | viability, T/C [4]: 15.8% | viability, T/C [5]: 13.3% | viability, T/C [6]: 9.24% | viability, T/C [7]: 20.5% | viability, T/C [8]: 17.2% | viability, T/C [9]: 14.4% | viability, T/C [10]: 14.3% | viability, T/C [11]: 13.8% | viability, T/C [12]: 9.35% | viability, T/C [13]: 18.9% | viability, T/C [14]: 15.3% | viability, T/C [15]: 15.1% | viability, T/C [16]: 14.7% | viability, T/C [17]: 11.5% | viability, T/C [18]: 11.7% | viability, T/C [19]: 19.8% | viability, T/C [20]: 18% | viability, T/C [21]: 14.6% | viability, T/C [22]: 15.7% | viability, T/C [23]: 9.34% | viability, T/C [24]: 12.8% | viability, T/C [25]: 18.8% | viability, T/C [26]: 18.4% | viability, T/C [27]: 15.8% | viability, T/C [28]: 11.8% | viability, T/C [29]: 12.1% | viability, T/C [30]: 13.7% | viability, T/C [31]: 19.9% | viability, T/C [32]: 18.8% | viability, T/C [33]: 14.6% | viability, T/C [34]: 14.7% | viability, T/C [35]: 13.5% | viability, T/C [36]: 12.3%
